Legend:
Assay in all cases: relative viability (nuclei count vs DMSO), 5 days (fraction); higher = more cells survive
NCI-H1666 = test system: NCI-H1666
How it was run: (§1)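 Lung cancer cell lines in 1536-well plates were dosed by pin tool the day after seeding, either with one drug alone or with a fixed anchor-drug dose plus five library-drug doses (not always all listed) in √10 steps. After 5 days, cells were fixed and their nuclei stained in one step (final 0.05% Triton X-100, 1% formaldehyde, 1 ug/ml Hoechst), then counted on 4× images. Relative viability is the nuclei count in treated wells divided by that in vehicle wells. Values are medians of duplicate plates.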

PC-3 [JPC-3] = test system: PC-3 [JPC-3]
How it was run: as §1

NCI-H650 = test system: NCI-H650
How it was run: as §1

NCI-H2023 = test system: NCI-H2023
How it was run: as §1

NCI-H2170 = test system: NCI-H2170
How it was run: as §1

NCI-H441 = test system: NCI-H441
How it was run: as §1

NCI-H1755 = test system: NCI-H1755
How it was run: as §1

NCI-H23 = test system: NCI-H23
How it was run: as §1

NCI-H1395 = test system: NCI-H1395
How it was run: as §1

LOU-NH91 = test system: LOU-NH91
How it was run: as §1

A-427 = test system: A-427
How it was run: as §1

LCLC-97TM1 = test system: LCLC-97TM1
How it was run: as §1

LU99A = test system: LU99A
How it was run: as §1

NCI-H2126 = test system: NCI-H2126
How it was run: as §1

NCI-H1793 = test system: NCI-H1793
How it was run: as §1

SK-LU-1 = test system: SK-LU-1
How it was run: as §1

NCI-H1915 = test system: NCI-H1915
How it was run: as §1

BEN = test system: BEN
How it was run: as §1

LXF-289 = test system: LXF-289
How it was run: as §1

NCI-H322M = test system: NCI-H322M
How it was run: as §1

NCI-H460 = test system: NCI-H460
How it was run: as §1

NCI-H1944 = test system: NCI-H1944
How it was run: as §1

HARA = test system: HARA
How it was run: as §1

## Cc1cnc(-c2cnc(NCCNc3ccc(C#N)cn3)nc2-c2ccc(Cl)cc2Cl)[nH]1 + O=C(c1cc(Cc2n[nH]c(=O)c3ccccc23)ccc1F)N1CCN(C(=O)C2CC2)CC1 [Olaparib] (partner 8 µM)
NCI-H1666; first compound 0.08 µM
  relative viability: 0.775
NCI-H1666; first compound 0.253 µM
  relative viability: 0.732
NCI-H1666; first compound 0.8 µM
  relative viability: 0.765
NCI-H1666; first compound 2.53 µM
  relative viability: 0.781
PC-3 [JPC-3]; first compound 0.08 µM
  relative viability: 1.1
PC-3 [JPC-3]; first compound 0.253 µM
  relative viability: 1.08
PC-3 [JPC-3]; first compound 0.8 µM
  relative viability: 1.09
PC-3 [JPC-3]; first compound 2.53 µM
  relative viability: 1.04
NCI-H650; first compound 0.08 µM
  relative viability: 0.41
NCI-H650; first compound 0.253 µM
  relative viability: 0.36
NCI-H650; first compound 0.8 µM
  relative viability: 0.479
NCI-H650; first compound 2.53 µM
  relative viability: 0.393
NCI-H2023; first compound 0.08 µM
  relative viability: 0.502
NCI-H2023; first compound 0.253 µM
  relative viability: 0.51
NCI-H2023; first compound 0.8 µM
  relative viability: 0.439
NCI-H2023; first compound 2.53 µM
  relative viability: 0.36
NCI-H2170; first compound 0.08 µM
  relative viability: 0.601
NCI-H2170; first compound 0.8 µM
  relative viability: 0.518
NCI-H2170; first compound 2.53 µM
  relative viability: 0.519
NCI-H441; first compound 0.08 µM
  relative viability: 0.568
NCI-H441; first compound 0.8 µM
  relative viability: 0.536
NCI-H441; first compound 2.53 µM
  relative viability: 0.387
NCI-H1755; first compound 0.08 µM
  relative viability: 0.941
NCI-H1755; first compound 0.253 µM
  relative viability: 0.819
NCI-H1755; first compound 0.8 µM
  relative viability: 0.804
NCI-H1755; first compound 2.53 µM
  relative viability: 0.869
NCI-H23; first compound 0.08 µM
  relative viability: 0.316
NCI-H23; first compound 0.253 µM
  relative viability: 0.297
NCI-H23; first compound 0.8 µM
  relative viability: 0.303
NCI-H23; first compound 2.53 µM
  relative viability: 0.367
NCI-H1395; first compound 0.08 µM
  relative viability: 0.496
NCI-H1395; first compound 0.253 µM
  relative viability: 0.435
NCI-H1395; first compound 0.8 µM
  relative viability: 0.504
NCI-H1395; first compound 2.53 µM
  relative viability: 0.47
LOU-NH91; first compound 0.08 µM
  relative viability: 0.94
LOU-NH91; first compound 0.253 µM
  relative viability: 0.868
LOU-NH91; first compound 0.8 µM
  relative viability: 0.962
LOU-NH91; first compound 2.53 µM
  relative viability: 0.877
A-427; first compound 0.08 µM
  relative viability: 0.759
A-427; first compound 0.253 µM
  relative viability: 0.711
A-427; first compound 0.8 µM
  relative viability: 0.822
A-427; first compound 2.53 µM
  relative viability: 0.743
LCLC-97TM1; first compound 0.08 µM
  relative viability: 0.379
LCLC-97TM1; first compound 0.253 µM
  relative viability: 0.36
LCLC-97TM1; first compound 0.8 µM
  relative viability: 0.417
LCLC-97TM1; first compound 2.53 µM
  relative viability: 0.316
LU99A; first compound 0.08 µM
  relative viability: 0.254
LU99A; first compound 0.253 µM
  relative viability: 0.256
LU99A; first compound 0.8 µM
  relative viability: 0.231
LU99A; first compound 2.53 µM
  relative viability: 0.253
NCI-H2126; first compound 0.08 µM
  relative viability: 0.922
NCI-H2126; first compound 0.253 µM
  relative viability: 0.908
NCI-H2126; first compound 0.8 µM
  relative viability: 0.89
NCI-H2126; first compound 2.53 µM
  relative viability: 0.898
NCI-H1793; first compound 0.08 µM
  relative viability: 1.01
NCI-H1793; first compound 0.253 µM
  relative viability: 0.755
NCI-H1793; first compound 0.8 µM
  relative viability: 0.957
NCI-H1793; first compound 2.53 µM
  relative viability: 0.867
SK-LU-1; first compound 0.08 µM
  relative viability: 0.455
SK-LU-1; first compound 0.253 µM
  relative viability: 0.479
SK-LU-1; first compound 0.8 µM
  relative viability: 0.463
SK-LU-1; first compound 2.53 µM
  relative viability: 0.472
NCI-H1915; first compound 0.08 µM
  relative viability: 0.253
NCI-H1915; first compound 0.8 µM
  relative viability: 0.264
NCI-H1915; first compound 2.53 µM
  relative viability: 0.239
BEN; first compound 0.08 µM
  relative viability: 1.17
BEN; first compound 0.253 µM
  relative viability: 1.04
BEN; first compound 0.8 µM
  relative viability: 0.973
BEN; first compound 2.53 µM
  relative viability: 0.978
LXF-289; first compound 0.08 µM
  relative viability: 1.04
LXF-289; first compound 0.253 µM
  relative viability: 1
LXF-289; first compound 0.8 µM
  relative viability: 1.11
LXF-289; first compound 2.53 µM
  relative viability: 1.11
NCI-H322M; first compound 0.08 µM
  relative viability: 0.768
NCI-H322M; first compound 0.253 µM
  relative viability: 0.733
NCI-H322M; first compound 0.8 µM
  relative viability: 0.638
NCI-H322M; first compound 2.53 µM
  relative viability: 0.637
NCI-H460; first compound 0.08 µM
  relative viability: 0.323
NCI-H460; first compound 0.8 µM
  relative viability: 0.342
NCI-H460; first compound 2.53 µM
  relative viability: 0.402
NCI-H1944; first compound 0.08 µM
  relative viability: 0.446
NCI-H1944; first compound 0.8 µM
  relative viability: 0.42
NCI-H1944; first compound 2.53 µM
  relative viability: 0.413
HARA; first compound 0.08 µM
  relative viability: 0.509
HARA; first compound 0.253 µM
  relative viability: 0.72
HARA; first compound 0.8 µM
  relative viability: 0.764
HARA; first compound 2.53 µM
  relative viability: 0.894
